Columns and labels:
Type in all cases: cell-based
HT-29 cells = experiment: HT-29 cell viability (necroptosis) assay; conditions: Homo sapiens, TNF-α (40 ng/mL), Smac mimetic (100 nM), z-VAD (20 μM), 40 h; for EC50: from survival rate curve; for viability at 20 µM: compound at 20 μM, read-out: HT-29(20 μM) Survival
Method: Human colon cancer HT-29 cells were used in a necroptosis assay. For this assay, HT-29 cells were added to 96-well plates. The compounds at different concentrations (0.3, 1.0, 3.0, 10.0, 20.0 μM) were then preprocessed for two hours. TNF-α (40 ng/mL), Smac mimetic (100 nM) and z-VAD (20 μM) were added, and the mixture was incubated for 40 h. Quantitative analysis of cell viability was conducted. DMSO pretreatment group was used as a negative control. Concentration for 50% of maximal effect was calculated according to the curve of the survival rate measured at different concentrations. FIG. 1 depicts the EC50 curves of compound A16.

L929 cells = experiment: L929 cell viability (necroptosis) assay; conditions: Mus musculus, TNF-α (40 ng/mL), z-VAD (20 μM), 16 h
Method: (§1) L929 cells were added to 96-well plate. The compounds at different concentrations (0.3, 1.0, 3.0, 10.0, 20.0 μM) were then preprocessed for two hours. TNF-α (40 ng/mL), and z-VAD (20 μM) were added, and the mixture was incubated for 16 h. Quantitative analysis of cell survival was conducted. DMSO pretreatment was used as a negative control. Concentration for 50% of maximal effect was calculated according to the curve of the survival rate measured at different concentrations. FIG. 3 depicts the EC50 curves of compound A3.

MEF cells = experiment: MEF cell viability (necroptosis) assay; conditions: Mus musculus, TNF-α (40 ng/mL), Smac mimetic (100 nM), z-VAD (20 μM), 12 h
Method: as §1, with “MEF cells” for “L929 cells”, “ng/mL), Smac mimetic (100 nM)” for “ng/mL),”, “for 12” for “for 16”, “pretreatment group” for “pretreatment”, “FIG. 2” for “FIG. 3”, “compound A9.” for “compound A3.”

| SMILES | EC50 (HT-29 cells) [µM] | EC50 (L929 cells) [µM] | EC50 (MEF cells) [µM] | viability at 20 µM (HT-29 cells) [%] |
| --- | --- | --- | --- | --- |
| O=S1(=O)CCc2cc3nccc(Nc4ccc5scnc5c4)c3cc21 [Compound B1, 8-(benzo[d]thiazol-5-ylamino)-2,3-dihydrothieno[2,3-g]quinoline 1,1-dioxide] | 1.74 | 64 |  |  |
| CCOC1=CS(=O)(=O)c2cc3c(Nc4ccc5scnc5c4)ccnc3cc21 [Compound A13] | 0.43 | 0.78 | 0.2 |  |
| CCOC1=C(C)S(=O)(=O)c2cc3c(Nc4ccc5scnc5c4)ccnc3cc21 [Compound A20] | 0.28 | 0.42 | 0.31 |  |
| O=S1(=O)CC2(OCCO2)c2cc3nccc(Nc4ccc5scnc5c4)c3cc21 [Compound B2, 8-(benzo[d]thiazol-5-ylamino)-2H-spiro[thieno[2,3-g]quinoline-3,2′-[1,3]dioxolane]1,1-dioxide] | 0.3 | 0.43 | 0.435 |  |
| Cn1ccc(C2=CS(=O)(=O)c3cc4c(Nc5ccc6scnc6c5)ccnc4cc32)n1 [Compound A33] | 0.35 |  | 0.38 |  |
| CC1=CS(=O)(=O)c2cc3c(Nc4ccc5scnc5c4)ccnc3cc21 [Compound A7] | 0.38 | 0.24 |  |  |
| O=S1(=O)C=C(C2CC2)c2cc3nccc(Nc4ccc5scnc5c4)c3cc21 [Compound A9] | 0.085 | 0.21 | 0.24 |  |
| CC1=Cc2cc3nccc(Nc4ccc5scnc5c4)c3cc2S1(=O)=O [Compound A3] | 0.62 | 1.94 |  |  |
| COCCOC1=CS(=O)(=O)c2cc3c(Nc4ccc5scnc5c4)ccnc3cc21 [Compound A17] | 0.26 |  | 0.3 |  |
| CC(C)OC1=CS(=O)(=O)c2cc3c(Nc4ccc5scnc5c4)ccnc3cc21 [Compound A14] | 0.28 |  | 0.29 |  |
| CC1=C(OCC2CC2)c2cc3nccc(Nc4ccc5scnc5c4)c3cc2S1(=O)=O [Compound A21] | 0.31 | 8.73 | 0.44 |  |
| C=C1c2cc3nccc(Nc4ccc5scnc5c4)c3cc2S(=O)(=O)C1(C)C [Compound B8, 8-(benzo[d]thiazol-5-ylamino)-2,2-dimethyl-3-methylene-2,3-dihydrothieno[2,3-g]quinoline 1,1-dioxide] | 0.93 |  | 1.77 |  |
| Cc1ccc(O)cc1Nc1ccnc2cc3c(cc12)S(=O)(=O)C=C3C1CC1 [Compound A95] | 0.3 |  |  |  |
| CC1=CS(=O)(=O)c2cc3c(Nc4cc(O)ccc4C)ccnc3cc21 [Compound A76] |  |  |  | 33.8 |
| O=S1(=O)C=C(c2ccccc2)c2cc3nccc(Nc4ccc5scnc5c4)c3cc21 [Compound A22] | 0.45 |  | 0.83 |  |
| O=S1(=O)C=C(O[C@@H]2CCOC2)c2cc3nccc(Nc4ccc5scnc5c4)c3cc21 [Compound A116] | 0.26 |  |  |  |
| CC1(C)C(=O)c2cc3nccc(Nc4ccc5scnc5c4)c3cc2S1(=O)=O [Compound B4, 8-(benzo[d]thiazol-5-ylamino)-2,2-dimethylthieno[2,3-g]quinolin-3(2H)-one 1,1-dioxide] | 2.08 |  | 9.33 |  |
| CC1=C(C)S(=O)(=O)c2cc3c(Nc4cc(O)ccc4C)ccnc3cc21 [Compound A88] |  |  |  | 41.3 |
| CNCCOC1=CS(=O)(=O)c2cc3c(Nc4ccc5scnc5c4)ccnc3cc21 [Compound A111] |  |  |  | 42 |

| SMILES | EC50 (HT-29 cells) [µM] | EC50 (L929 cells) [µM] | EC50 (MEF cells) [µM] | viability at 20 µM (HT-29 cells) [%] |
| --- | --- | --- | --- | --- |
| O=S1(=O)CC2(COC2)c2cc3nccc(Nc4ccc5scnc5c4)c3cc21 [Compound B28, 8′-(benzo[d]thiazol-5-ylamino)-2′H-spiro[oxetane-3,3′-thieno[2,3-g]quinoline] 1′, 1′-dioxide] |  |  |  | 15 |
| CC1=CS(=O)(=O)c2cc3c(Nc4ccc(O)cc4F)ccnc3cc21 [Compound A81] |  |  |  | 28.8 |
| CC1=C(C)S(=O)(=O)c2cc3c(Nc4cc(N)ccc4C)ccnc3cc21 [Compound A87] |  |  |  | 15.5 |
| C#Cc1cc(O)cc(Nc2ccnc3cc4c(cc23)S(=O)(=O)C(C)=C4)c1 [Compound A62] |  |  |  | 22.3 |
| CC1=Cc2cc3nccc(Nc4cc(O)cc(F)c4)c3cc2S1(=O)=O [Compound A59] |  |  |  | 27.9 |
| O=S1(=O)C=C(OC2CCNC2)c2cc3nccc(Nc4ccc5scnc5c4)c3cc21 (centres unmarked) [Compound A113] | 1.99 |  |  |  |
| CC1=Cc2cc3nccc(Nc4cc(CN)ccc4C)c3cc2S1(=O)=O [Compound A50, 8-((5-(aminomethyl)-2-methylphenyl)amino)-2-methylthieno[2,3-g]quinoline 1,1-dioxide] |  |  |  | 17.9 |
| COc1c2c(cc3c(Nc4ccc5scnc5c4)ccnc13)S(=O)(=O)C=C2 [Compound A108] | 0.63 |  |  |  |
| O=S1(=O)C=C(C2CC2)c2cc3nccc(Nc4ccc5cn[nH]c5c4)c3cc21 [Compound A91] | 0.16 |  |  |  |
| O=C1c2cc3nccc(Nc4ccc5scnc5c4)c3cc2S(=O)(=O)C12CC=CC2 [Compound B22] |  |  |  | 23.5 |
| CC1(C)C(=O)c2cc3nccc(Nc4n[nH]c5ccc(F)cc45)c3cc2S1(=O)=O [Compound B19] |  |  |  | 7.2 |
| Cn1cc(C2=CS(=O)(=O)c3cc4c(Nc5ccc6scnc6c5)ccnc4cc32)cn1 [Compound A31] | 1.03 |  |  |  |
| CC1=Cc2cc3nccc(Nc4ccn5ncnc5c4)c3cc2S1(=O)=O [Compound A69] |  |  |  | 10.5 |
| CC1=Cc2cc3nccc(Nc4cc(O)cc(Br)c4)c3cc2S1(=O)=O [Compound A60] |  |  |  | 13.9 |
| O=S1(=O)C=C(OC2COC2)c2cc3nccc(Nc4ccc5scnc5c4)c3cc21 [Compound A118] | 0.29 |  |  |  |
| CC1=Cc2cc3nccc(Nc4ccn5ccnc5c4)c3cc2S1(=O)=O [Compound A67, 8-(imidazo[1,2-a]pyridin-7-ylamino)-2-methylthieno[2,3-g]quinoline 1,1-dioxide] | 5.71 |  |  |  |
| CC1(C)C(O)c2cc3nccc(Nc4ccc5scnc5c4)c3cc2S1(=O)=O (centres unmarked) [Compound B9] | 0.62 |  |  |  |
| CC1=C(C)S(=O)(=O)c2cc3c(Nc4ccc5scnc5c4)ccnc3cc21 [Compound A8] | 0.53 |  |  |  |
